According to US20220079915A1, “IMMUNOSUPPRESSIVE PHARMACEUTICAL COMPOSITION AND APPLICATION THEREOF” (Shanghai Archeus Biotech Co., Ltd., priority 2018, published 2022):

Assays:
[1] = system: systolic blood pressure (SBP), diastolic blood pressure (DBP), heart rate (HR); conditions: source [3]; cited from earlier work
[2] = of 6-[3-(dimethylamino)propionyl]forskolin; sources [3], [4]; cited from earlier work
[3] = biological target: adenylate cyclase in rat cerebral cortex; conditions: source [8]; read-out: activation of adenylate cyclase in rat cerebral cortex EC50; cited from earlier work
psoriasis = conditions: 4 patients with psoriasis; PCT/US84/00291; cited from earlier work
TNF-α = assay: LPS-induced TNF-α secretion in THP-1 cells, ELISA of culture supernatant; type: cell-based, human; conditions: for TNF-α treatment value, B: relative to control
Experimental: 1) Recoveried and expanded THP-1 cells in a T75 culture flask. The growth medium was 10 milliliters of 10% fetal bovine serun/RPMI1640 (already containing 2 mM glutamine)/1% double antibiotics in each flask. Observed the cells under an invert microscope, and, when the cells were in the logarithmic growth phase, started the following drug treatment experiments; 2) Cultured 2*10e5/mL THP-1 cells in a 96-well culture plate with 100 microliters of growth medium (10% fetal bovine serum/RPMI640/1% double antibiotics) per well, and added 100 ng/ml PMA to incubate for 24 hour; 3) Eluted the non-adherent cells once with 300 microliters of fresh growth medium of 10% fetal bovine serum/RPMI1640/1% double antibiotics; 4) Added 200 microliters of growth medium of 10% fetal bovine serum/RPMI1640/1% double antibiotics, with/without test compound, to pre-incubate the cells at 37° C. for 2 hours; 5) Then added 100 ng/mL lipopolysaccharide (LPS) and incubated at 37° C. for 4 hours: 6) Collected 50 microliters of cell culture supernatant for the detection of the levels of related cytokines by enzyme-linked immunoassay, or stored it in a refrigerator at minus 80 degrees Celsius for future detection; 1) Prepared 1× elution buffer for enzyme-linked immunoassay. Prepared it with ultrapure water: 10× elution buffer mother solution=9:1 in volume ratio for use; 2) Prepared the antibody cocktail for enzyme-linked immunoassay. Prepared it with the antibody diluent (provided by Ab221825):antibody 1:antibody 2=18:1:1 in volume ratio for use. Antibody 1 was a TNF-α capture antibody and Antibody 2 was a TNF-α detector antibody. They were all supplied by kit Ab221825; 3) Prepared a series of concentration gradient samples of TNF-α standard with ultrapure water for the plotting of reaction standard curve and determining the linear range of detection signal; 4) Added 50 microliters of cell culture supernatant/standard and 50 microliters of the above antibody cocktail to a 96-well plate used for enzymatic reaction, sealed it with a film, placed it on a horizontal shaker, and incubated at 400 rpm for 1 hour at room temperature to allow the antibody-antigen complex was fully bound and coupled at the bottom of the well plate; 5) Discarded the supernatant, eluted with 350 microliters of 1× elution buffer/well for 3 times. In the last elution, put the well plate upside down on an absorbent paper and sucked and washed it thoroughly; 6) Added 100 microliters of TMB substrate solution (supplied by Ab221825) to each well, placed them on a horizontal shaker and incubated in the dark at room temperature for 5 minutes at a speed of 400 rpm; 7) Added 100 microliters of reaction stop solution (provided by Ab221825), placed on a horizontal shaker and mix at 400 rpm for 1 minute; 8) Detected the absorbance at 450 nm with a microplate reader.

myocardial contraction = conditions: cited from earlier work; for myocardial contraction activity EC50: sources [7], [8]; for myocardial contraction activity, equivalent to % of forskolin: source [2]
[4] = cited from earlier work
[5] = cited from earlier work; for antihypertensive effect, equivalent to % of forskolin: source [2]
cAMP = conditions: source [1]; cited from earlier work
[6] = system: guinea pig myocardial contraction; conditions: source [5]; cited from earlier work
IL-17A = IL-17A secretion of mouse spleen Naïve CD4+ T cells induced to differentiate to Th17 cells by cytokines, ELISA; type: cell-based
Experimental: 1) Pre-coated the 96-well plate with 2 μg/mL anti-mouse CD3e and incubated overnight at 4 degrees Celsius: 2) Separated fresh spleens from adult C57BL/6 female mice (8-12 weeks old), ground and filtered through a […] nylon cell strainer to obtain a single cell suspension in pre-cooled DPBS; 3) Washed the spleen cells again with DPBS, and resuspended in RoboSep™ buffer at a density of 1×10^8/mL; 4) Separated primary CD4+ T cells with mouse primary CD4+ T cell isolation kit as required by the kit; 5) Resuspended the isolated CD4+ T cells in complete medium (RPMI 1640 medium+10% inactivated FBS+1% double antibiotics) at a density of 1×10^6/mL; 6) Washed the 96-well plate pre-coated with anti-mouse CD3e twice with DPBS, added 50 μL of cytokine cocktail, the composition and final concentration of which are shown in Table 6 below, and then added 50 μL of compound solution (the final concentration of DMSO was 0.1%). Added 100 μL of cell suspension to each well to allow the final cell number per well to be 1×10^5/100 μL; [table] 7) Cultured the cells for 7 days under the above conditions. The culture conditions were 37 degrees Celsius, 5% CO2 concentration; 8) After 7 days, added 1× stimulation cocktail (eBioscience 500X) to the culture medium for 4 hours, and then collected cell culture supernatant for detection with IL-17A enzyme-linked immunoassay kit; 9) Completed the detection of supernatant IL-17A concentration with mouse IL-17 DuoSet ELISA kit; 10) Read the OD450 nm absorbance value with a microplate reader, and generated the standard curve by using the 4-parameter logistic fitting (4-PL) method. 1) Diluted the capture antibody (provided in the kit) to a working concentration in PBS without carrier protein, that is, a 96-well plate can be coated with 100 microliters per well. Sealed and incubated the plate overnight at room temperature; 2) Aspirated the coating buffer of the well plate, and eluted with 400 microliters of eluent (provided in the kit) for three times, aspirating as much liquid as possible each time; 3) Added 300 microliters of diluent (provided in the kit) to each well, and equilibrated for 1 hour at room temperature; 4) Eluted the well plate as in the above step 2) to be ready for the addition of sample; ) Added 100 microliters of sample or standard to each well containing the added diluent, and sealed and incubated the well plate for 2 hours at room temperature; 6) Eluted the well plate as in the above step 2); 7) Added 100 microliters of detector antibody (provided in the kit) to each well, and sealed and incubated the well plate for 2 hours at room temperature. 8) Eluted the well plate as in the above step 2); 9) Added 100 microliters of Streptavidin-HRP working solution (provided in the kit) to each well, and sealed and incubated the well plate in dark for 20 minutes at room temperature. 10) Eluted the well plate as in the above step 2); 11) Added 100 microliters of reaction substrate solution (provided in the kit) to each well, and incubated at room temperature for 20 minutes, protected from light: 12) Added 50 microliters of stop solution (provided in the kit) to each well, and tapped the well plate to ensure that the liquid is evenly mixed; 13) Detected the optical density value of each well at […]. The values could be corrected by deducting the values at 540 nm or 570 nm.

C=C[C@@]1(C)CC(=O)C2(O)[C@@]3(C)[C@@H](O)CCC(C)(C)[C@@H]3[C@H](OC(=O)CCNC)[C@H](OC(C)=O)[C@@]2(C)C1 (stereo partly shown) [6-[3-(methylamino)propionyl]forskolin]
beagle dog's systolic blood pressure (SBP), diastolic blood pressure (DBP), heart rate (HR) and other effects [1]: equivalent to 6-[3- (dimethylamino)- propionyl]forskolin
metabolite status [2]: in vivo active metabolite

C=C[C@@]1(C)CC(=O)[C@]2(O)[C@@]3(C)[C@@H](O)CCC(C)(C)[C@@H]3[C@H](O)[C@H](OC(C)=O)[C@@]2(C)O1 [forskolin]
EC50 [3]: 8 µM
effect on pathological symptoms of psoriasis (psoriasis): relieved the pathological symptoms
drug activity in reducing TNF-α (TNF-α; FIG. 2, compared with 6-[3-(dimethylamino)propionyl]forskolin hydrochloride): slightly lower than the aforementioned compound
myocardial contraction activity EC50 (myocardial contraction): 0.02 µg/mL
water solubility [4]: poor

C=C[C@@]1(C)CC(=O)C2(O)[C@@]3(C)C(O)CCC(C)(C)C3[C@H](OC(=O)CCCN)C(OC(C)=O)[C@@]2(C)O1 (stereo partly shown) [6-(4-aminobutyryl)forskolin]
antihypertensive effect ([5]; source [1]): 0.7
myocardial contraction activity (myocardial contraction; source [1]): 0.9 dp/dt
cAMP activation (cAMP): 214.9%

C=C[C@@]1(C)CC(=O)C2(O)[C@@]3(C)[C@@H](O)CCC(C)(C)[C@@H]3[C@H](OC(=O)CCN)[C@H](OC(C)=O)[C@@]2(C)C1 (stereo partly shown) [6-[3-aminopropionyl]forskolin]
metabolite status [2]: in vivo active metabolite of 6-[3- (dimethylamino)- propionyl]forskolin

C=C[C@@]1(C)CC(=O)[C@]2(O)C3(C)C(C(O)C(OC(=O)COC=O)[C@@]2(C)O1)C(C)(C)CC[C@@H]3O (stereo partly shown) [7-(2-formyloxy)forskolin]
myocardial contraction activity EC50 (myocardial contraction): myocardial contraction activity EC50 = 0.002 μg/mL

C=C[C@@]1(C)CC(=O)C2(O)[C@@]3(C)C(O)CCC(C)(C)C3[C@H](OC(=O)CCN(C)C)C(OC(C)=O)[C@@]2(C)O1 (stereo partly shown) [6-[3-(dimethylamino)propionyl]forskolin]
antihypertensive effect, equivalent to % of forskolin [5]: 80 % of forskolin
myocardial contraction activity, equivalent to % of forskolin (myocardial contraction): 120 % of forskolin

C=C[C@@]1(C)CC(=O)C2(O)[C@@]3(C)C(O)CCC(C)(C)C3[C@H](OC(=O)CCCN(C)C)C(OC(C)=O)[C@@]2(C)O1 (stereo partly shown) [6-[4-(dimethylamino)butyryl]forskolin]
antihypertensive effect, equivalent to % of forskolin [5]: 90 % of forskolin
myocardial contraction activity, equivalent to % of forskolin (myocardial contraction): 100 % of forskolin

C=CC1(C)CC(=O)C2(O)C(C)(O1)C(O)C(OC(=O)CN1CCCCC1)C1C(C)(C)CCC(O)C12C (stereo not shown) [6-[(piperidino)acetyl]-7-desacetyl forskolin]
guinea pig myocardial contraction activity EC50 [6]: guinea pig myocardial contraction activity EC50: 1.8 μg/mL

CCCCC[C@H](O)/C=C/[C@H]1[C@H](O)CC(=O)[C@@H]1C/C=C\CCCC(=O)O [PGE2, prostaglandin E2, reference compound]
effect on secretion and expression of TNF-α (TNF-α; 10 μM PGE2 alone, FIG. 4): inhibited the secretion and expression of TNF-α to a certain extent
TNF-α treatment value, B (TNF-α; Table 3, 10 μM PGE2): 46%
IL-17A, % of the basic level (IL-17A; 3 μM PGE2 alone, FIG. 10): 17%
IL-17A treatment value, B (IL-17A; Table 7, relative to control, 3 μM PGE2): 17%

C[C@]12CCC(=O)C=C1CC[C@@H]1[C@@H]2[C@@H](O)C[C@@]2(C)[C@H]1CC[C@]2(O)C(=O)CO [hydrocortisone, reference compound]
effect on TNF-α (TNF-α; 30 μM hydrocortisone alone, pre-incubated 2 hours before LPS, FIG. 6): further stimulated the increase of inflammatory factor TNF-α
TNF-α treatment value, B (TNF-α; Table 4, 30 μM hydrocortisone): 200%
reduction of the IL-17A level, % of the basic level (IL-17A; 3 μM hydrocortisone alone, FIG. 12): 38%
IL17-A treatment value, B (IL-17A; Table 8, relative to control, 3 μM hydrocortisone): 62%
